The text below walks through data of US20210317145A1, “Boronic Acid Derivatives” (Merck Patent GmbH, priority 2018, published 2021).

One may read the IC50 as the concentration needed to halve the response being measured. Lower therefore signals higher potency.

A value given as a limit tells only on which side of the number the result lay.

Assay [1] has as its target LMP7 (purified human immuno proteasome) (Homo sapiens, UniProt P20618+P28062). Description: Determination of LMP7 activity (fluorescence intensity assay, Suc-LLVY-AMC). Type of assay: biochemical. To be noted: for Selectivity LMP7 vs Beta5: LMP7 versus Beta5, incubation for 20 minutes; for IC50: purified human immuno proteasome 0.25 nM, incubation for 20 minutes at 25° C., Suc-LLVY-AMC 40 μM. As to the method: Determination of LMP7 Activity:
Measurement of LMP7 inhibition is performed in 384 well format based on fluorescence intensity assay.
(§1) Purified human immuno proteasome (0.25 nM) and serial diluted compounds in DMSO (range of concentrations from 30 μM to […]) or controls are incubated for 20 minutes or 120 minutes (long incubation) at 25° C. in assay buffer containing 50 mM Tris pH 7.4, 0.03% SDS, 1 mM EDTA and 1% DMSO. The reaction is initiated by the addition of the fluorogenic peptide substrate, Suc-LLVY-AMC (Bachem 1-1395), at a concentration of 40 μM. After 60 minutes of incubation at 37° C., fluorescence intensity is measured at λex=350 nm and λem=450 nm with a fluorescence reader (Perkin Elmer Envision reader or equivalent).
(§2) Unless indicated otherwise the results are obtained after incubation for 20 minutes.

Assay [2] has as its target Beta5 (purified human constitutive proteasome) (Homo sapiens, UniProt P20618+P28074). Briefly: Determination of Beta5 activity (fluorescence intensity assay, Suc-LLVY-AMC). To be noted: purified human constitutive proteasome 1.25 nM, incubation for 20 minutes at 25° C., Suc-LLVY-AMC 40 μM. Type of assay: biochemical. As for the experimental part:
Determination of Beta5 Activity:
Measurement of Beta5 inhibition is performed in 384 well format based on fluorescence intensity assay.
as §1, with “constitutive” for “immuno”, “(1.25” for “(0.25”
as §2

For the compound `CSC(C(=O)N[C@@H](Cc1coc2ccccc12)B(O)O)c1ccccc1` (single isomer, unassigned) [Compound 7], in assay [1], the “Selectivity LMP7 vs Beta5” value is recorded as “++ (100 ≤ Selectivity < 300)” and the IC50 is at most 50 nM. In addition, the IC50 in assay [2] fell in the range of 5000 to 30000 nM.
On to `O=C(N[C@@H](Cc1coc2ccccc12)B(O)O)C1Cc2ccccc2O1` (single isomer, unassigned) [Compound 36], for which the “Selectivity LMP7 vs Beta5” value in assay [1] (listed as drawing 86) was “+ (Selectivity <100)”. The IC50 is at most 50 nM in assay [1] and 50 to 500 nM in assay [2].
As for `O=C(N[C@@H](Cc1coc2ccccc12)B(O)O)C1Cc2ccccc2O1` (single isomer, unassigned) [Compound 37], the “Selectivity LMP7 vs Beta5” value in assay [1] (listed as drawing 87) was “+++ (300 ≤ Selectivity < 500)”. Moreover, the values for the IC50 in assay [1] and in assay [2] were at most 50 nM and 500 to 5000 nM, respectively.
Take `CSCC(=O)N[C@H](Cc1coc2c(C)cccc12)B(O)O` [Compound 1, [(1S)-2-(7-methylbenzo-furan-3-yl)-1-[(2-methyl-sulfanylacetyl)amino]-ethyl]boronic acid]: in assay [1], the “Selectivity LMP7 vs Beta5” value is on record as “++ (100 ≤ Selectivity < 300)” and the IC50 was 500 to 5000 nM. Besides, in assay [2], the concentration for half-maximal inhibition (IC50) lay in the range of 5000 to 30000 nM.
In the same order, the values of `CSCC(=O)N[C@@H](Cc1coc2c(C(F)(F)F)cccc12)B(O)O` [Compound 3, [(1R)-1-[(2-methyl-sulfanylacetyl)amino]-2-[7-(trifluoromethyl)-benzofuran-3-yl]ethyl]-boronic acid] are “+++ (300 ≤ Selectivity < 500)”, at most 50 nM and 500 to 5000 nM.
The like results for `COc1cccc2occ(C[C@H](NC(=O)CSC)B(O)O)c12` [Compound 4, [(1R)-2-(4-methoxy-benzofuran-3-yl)-1-[(2-methylsulfanylacetyl)-amino]ethyl]boronic acid] were, in that order, “+ (Selectivity <100)”, 500 to 5000 nM and 5000 to 30000 nM.
On to `CSCC(=O)N[C@@H](C[C@@H]1COc2ccccc21)B(O)O` [Compound 5, [(1R)-2-[(3S)-2,3-dihydrobenzofuran-3-yl]-1-[(2-methylsulfan-ylacetyl)amino]ethyl]-boronic acid], for which, in assay [1], the “Selectivity LMP7 vs Beta5” value is reported as “+++ (300 ≤ Selectivity < 500)” and the IC50 was at most 50 nM. The compound also gave an IC50 in assay [2] of 500 to 5000 nM.
In the same order, the values of `CSCC(=O)N[C@@H](Cc1coc2c(C)cccc12)B(O)O` [Compound 6, [(1R)-2-(7-methylbenzo-furan-3-yl)-1-[(2-methyl-sulfanylacetyl)amino]-ethyl]boronic acid] are “++ (100 ≤ Selectivity < 300)”, at most 50 nM and 50 to 500 nM.
In the same order, the values of `O=C(N[C@@H](Cc1coc2ccccc12)B(O)O)C1SCCS1` [Compound 8, [(1R)-2-(benzofuran-3-yl)-1-(1,3-dithiolane-2-carbonylamino)ethyl]-boronic acid] are “++ (100 ≤ Selectivity < 300)”, at most 50 nM and 500 to 5000 nM.
The like results for `CSCC(=O)NC(Cc1coc2c(F)cccc12)B(O)O` (stereo not drawn) [Compound 9, [2-(7-fluorobenzofuran-3-yl)-1-[(2-methyl-sulfanylacetyl)amino]-ethyl]boronic acid] were, in that order, “++ (100 ≤ Selectivity < 300)”, at most 50 nM and 500 to 5000 nM.
Turning to `CSCC(=O)N[C@@H](CC1COc2c(C)cccc21)B(O)O` (stereo partly drawn) [Compound 10, [(1R)-2-(7-methyl-2,3-dihydrobenzofuran-3-yl)-1-[(2-methyl-sulfanylacetyl)amino]-ethyl]boronic acid], in assay [1], the “Selectivity LMP7 vs Beta5” value is on record as “++++ (Selectivity ≥ 500)” and the half-inhibitory concentration (IC50) is at most 50 nM. This compound also displayed an IC50 in assay [2] of 5000 to 30000 nM.
The like results for `O=C(N[C@@H](Cc1coc2ccccc12)B(O)O)C1OCCS1` (stereo partly drawn) [Compound 11, [(1R)-2-(benzofuran-3-yl)-1-(1,3-oxathiolane-2-carbonylamino)ethyl]-boronic acid] were, in that order, “++ (100 ≤ Selectivity < 300)”, at most 50 nM and 50 to 500 nM.
In the same order, the values of `CSCC(=O)N[C@@H](Cc1coc2c(F)cccc12)B(O)O` [Compound 12, [(1R)-2-(7-fluorobenzo-furan-3-yl)-1-[(2-methyl-sulfanylacetyl)amino]-ethyl]boronic acid] are “++ (100 ≤ Selectivity < 300)”, at most 50 nM and 50 to 500 nM.
The like results for `CCSCC(=O)N[C@@H](Cc1coc2ccccc12)B(O)O` [Compound 13, [(1R)-2-(benzofuran-3-yl)-1-[(2-ethylsulfanyl-acetyl)amino]ethyl]-boronic acid] were, in that order, “+++ (300 ≤ Selectivity < 500)”, at most 50 nM and 500 to 5000 nM.
Regarding `CSCC(=O)N[C@@H](Cc1coc2c(C)c(Cl)ccc12)B(O)O` [Compound 14, [(1R)-2-(6-chloro-7-methylbenzofuran-3-yl)-1-[(2-methyl-sulfanylacetyl)amino]-ethyl]boronic acid], in assay [1], the “Selectivity LMP7 vs Beta5” value is reported as “+++ (300 ≤ Selectivity < 500)”. Further, the IC50 in assay [1] was at most 50 nM; in assay [2], 500 to 5000 nM.
Consider `O=C(CSCCCO)N[C@@H](Cc1coc2ccccc12)B(O)O` [Compound 15, [(1R)-2-(benzofuran-3-yl)-1-[[2(3-hydroxy-propylsulfanyl)acetyl]-amino]ethyl]boronic acid], for which, in assay [1], the “Selectivity LMP7 vs Beta5” value is “+ (Selectivity <100)” and the IC50 is at most 50 nM. This compound also yielded an IC50 in assay [2] of 50 to 500 nM.
Regarding `CSCC(=O)N[C@@H](Cc1coc2c(Cl)cccc12)B(O)O` [Compound 16, [(1R)-2-(7-chlorobenzo-furan-3-yl)-1-[(2-methylsulfanylacetyl)-amino]ethyl]boronic acid], in assay [1], the “Selectivity LMP7 vs Beta5” value was “++ (100 ≤ Selectivity < 300)” and the 50% inhibitory concentration (IC50) was at most 50 nM. The IC50 in assay [2] is 50 to 500 nM.
On to `O=C(N[C@@H](Cc1coc2ccccc12)B(O)O)C1CCCS1` (stereo partly drawn) [Compound 17, [(1R)-2-(benzofuran-3-yl)-1-(tetrahydrothio-phene-2-carbonyl-amino)ethyl]boronic acid], for which the “Selectivity LMP7 vs Beta5” value in assay [1] is on record as “++ (100 ≤ Selectivity < 300)”. Also, the figures for the IC50 in assay [1] and in assay [2] were at most 50 nM and 5000 to 30000 nM, respectively.
The like results for `CSCC(=O)NC(CC1COc2ccccc21)B(O)O` (stereo not drawn) [Compound 19, [2-(2,3-dihydrobenzo-furan-3-yl)-1-[(2-methylsulfanylacetyl)-amino]ethyl]boronic acid] were, in that order, “++++ (Selectivity ≥ 500)”, at most 50 nM and 5000 to 30000 nM.
In the case of `CSCC(=O)NC(Cc1coc2c(C)c(Cl)ccc12)B(O)O` (stereo not drawn) [Compound 20, [2-(6-chloro-7-methyl-benzofuran-3-yl)-1-[(2-methylsulfanylacetyl)-amino]ethyl]boronic acid], in assay [1], the “Selectivity LMP7 vs Beta5” value was “+++ (300 ≤ Selectivity < 500)” and the concentration for half-maximal inhibition (IC50) is at most 50 nM. This compound also gave an IC50 in assay [2] of 500 to 5000 nM.
In the same order, the values of `CSCC(=O)N[C@@H](Cc1ccc(C)cc1C)B(O)O` [Compound 21, [(1R)-2-(2,4-dimethyl-phenyl)-1-[(2-methyl-sulfanylacetyl)amino]-ethyl]boronic acid] are “++ (100 ≤ Selectivity < 300)”, at most 50 nM and 500 to 5000 nM.
For the compound `CSCC(=O)N[C@@H](Cc1coc2ccccc12)B(O)O` [Compound 22, [(1R)-2-(benzofuran-3-yl)-1-[(2-methyl-sulfanylacetyl)-amino]ethyl]boronic acid], the “Selectivity LMP7 vs Beta5” value in assay [1] is reported as “++ (100 ≤ Selectivity < 300)”. The IC50 is at most 50 nM in assay [1] and 500 to 5000 nM in assay [2].
The like results for `CSCC(=O)N[C@H](Cc1coc2c(F)cccc12)B(O)O` [Compound 23] were, in that order, “++ (100 ≤ Selectivity < 300)”, 50 to 500 nM and 5000 to 30000 nM.
In the same order, the values of `O=C(CCO)N[C@@H](Cc1coc2ccccc12)B(O)O` [Compound 24, [(1R)-2-(benzofuran-3-yl)-1-(3-hydroxypro-panoylamino)ethyl]-boronic acid] are “++ (100 ≤ Selectivity < 300)”, at most 50 nM and 500 to 5000 nM.
In the same order, the values of `CC(C)(O)CC(=O)N[C@@H](Cc1coc2ccccc12)B(O)O` [Compound 25, [(1R)-2-(benzofuran-3-yl)-1-[(3-hydroxy-3-methylbutanoyl)amino]-ethyl]boronic acid] are “++ (100 ≤ Selectivity < 300)”, at most 50 nM and 5000 to 30000 nM.
